# According to publication PMC6071567 (Cold Spring Harbor Molecular Case Studies, 2018):
# “Also recorded” adds a separate entry of the source. Where two headings read alike, the source gives them in different places.
# Key:
# [1] = test system: KELLY; experiment: Cell viability by resazurin assay, 72 h; assay type: cell-based, human; details: ALK F1174L, amplified, MYCN amplified
# [2] = test system: ALK-I1171T metastatic neuroblastoma; assay type: in vivo, human; details: for Primary tumor volume (MRI): ∼18.8 mL immediately before start
# [3] = test system: IMR32; experiment: Cell viability by resazurin assay, 72 h; assay type: cell-based, human; details: ALK wt, MYCN amplified
# [4] = test system: SK-N-AS; experiment: Cell viability by resazurin assay, 72 h; assay type: cell-based; details: Homo sapiens
# [5] = test system: CLB-GE; experiment: Cell viability by resazurin assay, 72 h; assay type: cell-based; details: Homo sapiens
# [6] = test system: CLB-PE; experiment: Cell viability by resazurin assay, 72 h; assay type: cell-based; details: Homo sapiens
# [7] = test system: CLB-GAR; experiment: Cell viability by resazurin assay, 72 h; assay type: cell-based, human; details: ALK R1275Q, MYCN nonamplified
# [8] = test system: CLB-BAR; experiment: Cell viability by resazurin assay, 72 h; assay type: cell-based; details: Homo sapiens
# [9] = test system: SK-N-DZ; experiment: Cell viability by resazurin assay, 72 h; assay type: cell-based; details: Homo sapiens
# [10] = test system: SK-N-BE; experiment: Cell viability by resazurin assay, 72 h; assay type: cell-based; details: Homo sapiens
IC50 [4] [nM],IC50 [9] [nM],IC50 [10] [nM],Structure (SMILES),IC50 [1] [nM],"IC50 ([1]; Homo sapiens, Kelly) [nM]","Clinical evaluation (CT, MRI, MIBG scintigraphy) ([2]; 21 mo after initiation of ceritinib, 1 yr after surgery)",Primary tumor volume (MRI) ([2]; after 3 mo therapy) [mL],"Primary tumor volume (MRI) ([2]; after 6 mo therapy, prior to surgery) [mL]","Decrease in size of primary tumor (MRI, volumetric) ([2]; after 6.5 mo of ceritinib treatment) [%]",Clinical status ([2]; after 34 mo of continuous ceritinib treatment),"Urinary catecholamines ([2]; after the first 4-wk cycle, 450 mg/m^2 once daily)","Ki-67 positivity of resected tumor ([2]; tumor removed at 7.5 mo of treatment, 27% before treatment) [%]",IC50 [3] [nM],"IC50 ([3]; Homo sapiens, IMR-32, 72 h) [nM]",IC50 [5] [nM],IC50 [6] [nM],IC50 [7] [nM],IC50 ([7]; Homo sapiens) [nM],IC50 [8] [nM]
> 3000,> 800,> 1500,"Cc1cc(Nc2ncc(Cl)c(Nc3ccccc3S(=O)(=O)C(C)C)n2)c(OC(C)C)cc1C1CCNCC1 [ceritinib, 5-chloro-N2-(2-isopropoxy-5-methyl-4-(piperidin-4-yl)phenyl)-N4-(2-(isopropylsulfonyl)phenyl)pyrimidine-2,4-diamine]",329 ± 36,~330,complete remission at all metastatic sites; also recorded: no residual tumor in the abdomen and complete resolution of metastases at all sites,~13.8,~10.6,−43.6,continuous complete remission,decreased to levels below the upper reference limit,5,> 500,> 350,131 ± 24,> 15000,102 ± 16,~110,36.1 ± 6.2
353 ± 27,> 4000,> 1000,C[C@@H](Oc1cc(-c2cnn(C3CCNCC3)c2)cnc1N)c1c(Cl)ccc(F)c1Cl [crizotinib],333 ± 78,~330,–,–,–,–,–,–,–,349 ± 45,> 350,234 ± 18,> 4000,–,–,54.9 ± 20
